Results as given in patent US9067937B2 (priority 2012, dated 2015).
Counter-ions that a name gives are not always drawn.

Experiments:
MELK = MELK (Homo sapiens, UniProt Q14680); experiment: Kinase assay (IMAP fluorescence polarization, FITC-labeled histone H3 peptide); format: biochemical; conditions: 50 micro-M ATP
Summary of the method: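 Kinase (0.8 ng/μL) reacted with 100 nM FITC-histone H3 peptide and 50 μM ATP in 20 mM HEPES, 0.3 mM MgCl2, 2 mM DTT, 0.01% Tween-20, pH 7.4, for 1 hour at room temperature. Phosphorylation read by IMAP fluorescence polarization after adding binding solution; IC50 from four-parameter fit.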

22Rv1 cells = experiment: Cell-based assay, anti-proliferative activity (Cell Counting Kit-8, 72 hours); set-up: species or system human; conditions: Homo sapiens, 22Rv1, 72 h, read-out: IC50 (μM) (22Rvl)
Summary of the method: (§1)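 Cells seeded at 2,000–3,000 cells/well and exposed to candidate MELK inhibitors for 72 hours; growth measured with Cell Counting Kit-8. IC50 values calculated from the growth read-out.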

A549 cells = experiment: as above; set-up: species or system human; conditions: Homo sapiens, A549, 72 h, read-out: IC50 (μM) (A549)
Summary of the method: as §1

DU4475 cells = experiment: as above; set-up: species or system human; conditions: Homo sapiens, DU-4475, 72 h, read-out: IC50 (μM) (DU4475)
Summary of the method: as §1

T47D cells = experiment: as above; set-up: species or system human; conditions: Homo sapiens, T47D, 72 h, read-out: IC50 (μM) (T47D)
Summary of the method: as §1

HT1197 cells = experiment: Cell-based assay, anti-proliferative activity, MELK-negative control (Cell Counting Kit-8, 72 hours); set-up: species or system human; conditions: Homo sapiens, HT1197, 72 h, read-out: IC50 (μM) (HTll97)
Protocol: 100 micro-L of cell suspension was seeded onto 96-well microtiter plate (ViewPlate-96FTC, PerkinElmer). The initial cell concentration of 22Rv1, T47D, A549, DU4475, and HT1197 were 3,000 cells/well, 2,000 cells/well and 2,500 cells/well, respectively. Cellular growth was determined using Cell Counting Kit-8 (DOJINDO) at 72 hours after the exposure of the candidate inhibitors. […] Accurate IC50 values were calculated as described previously.

Chain of MELK (Q14680 whole entry, looked up): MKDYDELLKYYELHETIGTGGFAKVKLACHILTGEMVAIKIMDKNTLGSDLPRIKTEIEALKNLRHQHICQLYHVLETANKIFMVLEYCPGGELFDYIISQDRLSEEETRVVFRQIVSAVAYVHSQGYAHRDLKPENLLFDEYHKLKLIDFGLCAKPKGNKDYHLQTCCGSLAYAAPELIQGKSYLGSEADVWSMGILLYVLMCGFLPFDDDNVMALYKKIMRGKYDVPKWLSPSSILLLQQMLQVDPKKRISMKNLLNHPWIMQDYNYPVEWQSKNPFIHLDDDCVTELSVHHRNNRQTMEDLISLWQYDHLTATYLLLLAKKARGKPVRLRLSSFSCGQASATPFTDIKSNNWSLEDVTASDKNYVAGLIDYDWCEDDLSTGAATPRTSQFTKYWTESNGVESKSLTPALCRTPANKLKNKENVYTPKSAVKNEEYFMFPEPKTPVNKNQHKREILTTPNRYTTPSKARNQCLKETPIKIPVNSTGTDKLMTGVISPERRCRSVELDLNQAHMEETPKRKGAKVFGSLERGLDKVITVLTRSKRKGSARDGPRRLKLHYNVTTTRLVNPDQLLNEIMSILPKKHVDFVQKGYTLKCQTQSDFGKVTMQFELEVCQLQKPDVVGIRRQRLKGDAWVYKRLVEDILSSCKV

Question: Which IC50 (MELK) does the source give for `CC(=O)c1cnc2ccc(-c3cc(Cl)c(O)c(Cl)c3)nc2c1Nc1ccc(N2CCC(N(C)C)C2)nc1` (stereo not drawn) [Example 51, 1-[6-(3,5-Dichloro-4-hydroxyphenyl)-4-{6-[3-(dimethylamino)pyrrolidin-1-yl]pyridin-3-ylamino}-1,5-naphthyridin-3-yl]ethanone trihydrochloride] here?
Answer: 0.0082 µM

Question: What about the IC50 (22Rv1 cells) of the same compound?
Answer: 0.36 µM

Question: What about the IC50 (A549 cells) of the same compound?
Answer: 0.32 µM

Question: What about the IC50 (DU4475 cells) of the same compound?
Answer: 0.32 µM

Question: And the IC50 (T47D cells)?
Answer: 0.19 µM

Question: And the IC50 (HT1197 cells)?
Answer: 2.8 µM

Question: What does the source list for `CC(=O)c1cnc2ccc(-c3cc(Cl)c(O)c(Cl)c3)nc2c1Nc1ccc(OCCN(C)C)nc1` [Example 21, 1-[6-(3,5-Dichloro-4-hydroxyphenyl)-4-{6-[2-(dimethylamino)ethoxy]pyridin-3-ylamino}-1,5-naphthyridin-3-yl)ethanone dihydrochloride]?
Answer: IC50 (MELK): 0.0046 µM; IC50 (22Rv1 cells): 0.27 µM; IC50 (A549 cells): 0.21 µM; IC50 (DU4475 cells): 0.096 µM; IC50 (T47D cells): 0.1 µM; IC50 (HT1197 cells): 2.3 µM

Question: `CC(=O)c1cnc2ccc(-c3cc(Cl)c(O)c(Cl)c3)nc2c1NCC1CCN(C)CC1` [Example 27, 1-(6-(3,5-Dichloro-4-hydroxyphenyl)-4-((1-methylpiperidin-4-yl)methylamino)-1,5-naphthyridin-3-yl)ethanone dihydrochloride] was tested. Which IC50 (MELK) did it give?
Answer: 0.0007 µM

Question: And the IC50 (22Rv1 cells)?
Answer: 0.1 µM

Question: And the IC50 (A549 cells)?
Answer: 0.11 µM

Question: What about the IC50 (DU4475 cells) of the same compound?
Answer: 0.1 µM

Question: And the IC50 (T47D cells)?
Answer: 0.079 µM

Question: And the IC50 (HT1197 cells)?
Answer: 2 µM

Question: With `COc1cc(-c2ccc3ncc(S(C)(=O)=O)c(Nc4ccc(CN(C)C)cc4)c3n2)cc(Cl)c1O` [Example 18, 2-Chloro-4-(8-{4-[(dimethylamino)methyl]phenylamino}-7-(methylsulfonyl)-1,5-naphthyridin-2-yl)-6-methoxyphenol dihydrochloride] as the compound, how does the IC50 (MELK) read?
Answer: 0.005 µM

Question: What about the IC50 (22Rv1 cells) of the same compound?
Answer: 1 µM

Question: And the IC50 (A549 cells)?
Answer: 0.69 µM

Question: What about the IC50 (DU4475 cells) of the same compound?
Answer: 0.31 µM

Question: What about the IC50 (T47D cells) of the same compound?
Answer: 0.32 µM

Question: What about the IC50 (HT1197 cells) of the same compound?
Answer: 3.8 µM

Question: With `CC(=O)c1cnc2ccc(-c3cc(F)c(O)c(Cl)c3)nc2c1Nc1ccc(CCN(C)C)cc1` [Example 30, 1-[6-(3-Chloro-5-fluoro-4-hydroxyphenyl)-4-{4-[2-(dimethylamino)ethyl]phenylamino}-1,5-naphthyridin-3-yl)ethanone dihydrochloride] as the compound, how does the IC50 (MELK) read?
Answer: 0.0059 µM

Question: And the IC50 (22Rv1 cells)?
Answer: 0.17 µM

Question: And the IC50 (A549 cells)?
Answer: 0.14 µM

Question: And the IC50 (DU4475 cells)?
Answer: 0.041 µM

Question: What about the IC50 (T47D cells) of the same compound?
Answer: 0.11 µM

Question: What about the IC50 (HT1197 cells) of the same compound?
Answer: 1.2 µM

Question: For `CC(=O)c1cnc2ccc(-c3ccncc3)nc2c1N[C@H]1CC[C@H](CN(C)C)CC1` [Example 56, 1-{4-[4-(trans-4-Dimethylamino)methylcyclohexylamino]-6-(pyridin-4-yl)-1,5-naphthyridin-3-yl}ethanone trihydrochloride], which IC50 (MELK) is on record?
Answer: 0.016 µM

Question: And the IC50 (22Rv1 cells)?
Answer: 0.86 µM

Question: What about the IC50 (A549 cells) of the same compound?
Answer: 0.52 µM

Question: And the IC50 (DU4475 cells)?
Answer: 0.46 µM

Question: And the IC50 (T47D cells)?
Answer: 0.38 µM

Question: What about the IC50 (HT1197 cells) of the same compound?
Answer: 1.7 µM

Question: `CC(=O)c1cnc2ccc(-c3cc(F)c(O)c(Cl)c3)nc2c1Nc1ccc(N2CCC[C@H](N)C2)nc1` [Example 72, (S)-1-(4-{[6-(3-Aminopiperidin-1-yl)pyridin-3-yl]amino}-6-(3-chloro-5-fluoro-4-hydroxy-phenyl)-1,5-naphthyridin-3-yl)ethanone trihydrochloride] was tested. Which IC50 (MELK) did it give?
Answer: 0.0043 µM

Question: And the IC50 (22Rv1 cells)?
Answer: 0.014 µM

Question: What about the IC50 (A549 cells) of the same compound?
Answer: 0.047 µM

Question: And the IC50 (DU4475 cells)?
Answer: 0.014 µM

Question: What about the IC50 (T47D cells) of the same compound?
Answer: 0.0053 µM

Question: And the IC50 (HT1197 cells)?
Answer: 1.2 µM

Question: Which results are given for `CC(=O)c1cnc2ccc(-c3cc(Cl)c(O)c(Cl)c3)nc2c1Nc1ccc(N2CCCC(N)C2)nc1` (stereo not drawn) [Example 64, 1-(4-{[6-(3-Aminopiperidin-1-yl)pyridin-3-yl]amino}-6-(3,5-dichloro-4-hydroxyphenyl)-1,5-naphthyridin-3-yl)ethanone trihydrochloride]?
Answer: IC50 (MELK): 0.0012 µM; IC50 (22Rv1 cells): 0.016 µM; IC50 (A549 cells): 0.07 µM; IC50 (DU4475 cells): 0.016 µM; IC50 (T47D cells): 0.0064 µM; IC50 (HT1197 cells): 2.9 µM

Question: `CC(=O)c1cnc2ccc(-c3cnc4[nH]ccc4c3)nc2c1N[C@H]1CC[C@H](CN(C)C)CC1` [Example 82, 1-(4-{trans-4-[(Dimethylamino)methyl]cyclohexylamino}-6-(1H-pyrrolo[2,3-b]pyridin-5-yl)-1,5-naphthyridin-3-yl)ethanone trihydrochloride] was tested. Which IC50 (MELK) did it give?
Answer: 0.013 µM

Question: And the IC50 (22Rv1 cells)?
Answer: 0.37 µM

Question: What about the IC50 (A549 cells) of the same compound?
Answer: 0.33 µM

Question: What about the IC50 (DU4475 cells) of the same compound?
Answer: 0.65 µM

Question: And the IC50 (T47D cells)?
Answer: 0.32 µM

Question: What about the IC50 (HT1197 cells) of the same compound?
Answer: 2.3 µM

Question: For `CC(=O)c1cnc2ccc(-c3cn[nH]c3)nc2c1N[C@H]1CC[C@H](CN(C)C)CC1` [Example 42, 1-(4-{trans-4-[(Dimethylamino)methyl]cyclohexylamino}-6-(1H-pyrazol-4-yl)-1,5-naphthyridin-3-yl)ethanone trihydrochloride], which IC50 (MELK) is on record?
Answer: 0.017 µM

Question: And the IC50 (22Rv1 cells)?
Answer: 0.063 µM

Question: What about the IC50 (A549 cells) of the same compound?
Answer: 0.049 µM

Question: And the IC50 (DU4475 cells)?
Answer: 0.045 µM

Question: And the IC50 (T47D cells)?
Answer: 0.036 µM

Question: And the IC50 (HT1197 cells)?
Answer: 0.06 µM

Question: What does the source list for `CCC(=O)c1cnc2ccc(-c3cc(F)c(O)c(Cl)c3)nc2c1N[C@H]1CC[C@H](CN(C)C)CC1` [Example 205, 1-[6-(3-chloro-5-fluoro-4-hydroxyphenyl)-4-({trans-4-[(dimethylamino)methyl]cyclohexyl}amino)-1,5-naphthyridin-3-yl)]propan-1-one dihydrochloride]?
Answer: IC50 (MELK): 0.0028 µM; IC50 (22Rv1 cells): 0.022 µM; IC50 (A549 cells): 0.032 µM; IC50 (DU4475 cells): 0.033 µM; IC50 (T47D cells): 0.0083 µM; IC50 (HT1197 cells): 0.69 µM

Question: With `CN(C)C[C@H]1CC[C@H](Nc2c(C(=O)C3CC3)cnc3ccc(-c4cc(F)c(O)c(Cl)c4)nc23)CC1` [Example 5, (6-(3-Chloro-5-fluoro-4-hydroxyphenyl)-4-{trans-4-[(dimethylamino)methyl]cyclohexyl-amino}-1,5-naphthyridin-3-yl)(cyclopropyl)methanone dihydrochloride] as the compound, how does the IC50 (MELK) read?
Answer: 0.0008 µM

Question: What about the IC50 (22Rv1 cells) of the same compound?
Answer: 0.0057 µM

Question: What about the IC50 (A549 cells) of the same compound?
Answer: 0.0061 µM

Question: And the IC50 (DU4475 cells)?
Answer: 0.003 µM

Question: And the IC50 (T47D cells)?
Answer: 0.0029 µM

Question: And the IC50 (HT1197 cells)?
Answer: 0.018 µM

Question: Which IC50 (MELK) does the source give for `CCC(=O)c1cnc2ccc(-c3cc(Cl)c(O)c(Cl)c3)nc2c1Nc1ccc(N2CCC[C@@H](N)C2)nc1` [Example 214, (R)-1-(4-((6-(3-aminopiperidin-1-yl)pyridin-3-yl)amino)-6-(3,5-dichloro-4-hydroxyphenyl)-1,5-naphthyridin-3-yl)propan-1-one trihydrochloride] here?
Answer: 0.0013 µM

Question: What about the IC50 (22Rv1 cells) of the same compound?
Answer: 0.0059 µM

Question: And the IC50 (A549 cells)?
Answer: 0.013 µM

Question: And the IC50 (DU4475 cells)?
Answer: 0.004 µM

Question: What about the IC50 (T47D cells) of the same compound?
Answer: 0.0028 µM

Question: And the IC50 (HT1197 cells)?
Answer: 0.34 µM

Question: Which IC50 (MELK) does the source give for `CC(=O)c1cnc2ccc(-c3cc(Cl)c(O)c(Cl)c3)nc2c1N[C@H]1CC[C@H](CN2CCOCC2)CC1` [Example 47, 1-[6-(3,5-Dichloro-4-hydroxyphenyl)-4-{[trans-4-(morpholinomethyl)cyclohexyl]amino}-1,5-naphthyridin-3-yl]ethanone] here?
Answer: 0.01 µM

Question: And the IC50 (22Rv1 cells)?
Answer: 0.034 µM

Question: And the IC50 (A549 cells)?
Answer: 0.02 µM

Question: And the IC50 (DU4475 cells)?
Answer: 0.009 µM

Question: What about the IC50 (T47D cells) of the same compound?
Answer: 0.015 µM

Question: What about the IC50 (HT1197 cells) of the same compound?
Answer: 0.16 µM

Question: Which results are given for `CN(C)CCOc1ccc(Nc2c(S(C)(=O)=O)cnc3ccc(-c4cc(Cl)c(O)c(Cl)c4)nc23)cn1` [Example 24, 2,6-Dichloro-4-(8-{6-[2-(dimethylamino)ethoxy]pyridin-3-ylamino}-7-(methylsulfonyl)-1,5-naphthyridin-2-yl)phenol hydrochloride]?
Answer: IC50 (MELK): 0.0053 µM; IC50 (22Rv1 cells): 1.8 µM; IC50 (A549 cells): 5.1 µM; IC50 (DU4475 cells): 0.38 µM; IC50 (T47D cells): 0.58 µM; IC50 (HT1197 cells): 15 µM
